{"source": "patent US20030171420A1", "about": "“Compounds and compositions for use in ingibting endoparasitic fatty acid biosynthesis” (priority 2000, published 2003)", "key": {"[1]": {"system": "fatty acid synthesis in Trypanosoma brucei", "details": "Morita et al., Science 288: 140-143 (2000); read-out: IC50 for inhibition of fatty acid synthesis in Trypanosoma brucei; cited from earlier work"}, "Plasmodium falciparum": {"system": "Plasmodium falciparum", "test": "Plasmodium falciparum growth inhibition in human red blood cells (parasite lactate dehydrogenase assay)", "format": "cell-based", "details": "for IC50: Plasmodium falciparum, Erythrocyte, at 48 hours, P. falciparum in human red blood cells, read-out: 50% inhibitory concentration (IC50) for parasite growth", "description": "Plasmodium falciparum was maintained in human red blood cells and the inhibitory effects of racemic thiolactomycin, or compound C on its growth was measured, employing assay techniques as described by Makkler, M. T., Ries, J. M., Williams, J. A., Bancroft, J. E., Piper, R. C., Gibbins, B. L. and Hinrichs, D. J., Parasite lactate dehydrogenase as an assay for Plasmodium falciparum drug sensitivity. Am. J. Trop. Med. Hyg. 48, 739-41 (1993)."}, "[2]": {"system": "Eimeria tenella parasites", "test": "Eimeria tenella uracil uptake in infected MDBK cells", "format": "cell-based", "details": "uracil uptake as indicator of parasite viability", "description": "(§1) Compound C was tested against Eimeria tenella parasites in two separate assay procedures, as described (i) in Inhibition of the development of Eimeria tenella in cultured bovine kidney cells by a soluble factor produced by peripheral blood lymphocytes from immune chickens, J. M. Bumstead, S. J. Topham, F. M. Tomley, Parasitology, 117.39-47 (1998) and (ii) Eimeria tenella: Parasite-specific incorporation of 3H Uracil as a quantitative measure of intracellular development, Schmatz, D. M., Crane, M. S., is Murray, P. K., Journal of Protozology (1986) 33:109-114.\nIn the second assay using infected MDBK cells, compound C caused a significant decrease in the uptake of uracil by the parasites (a recognised indicator of parasite viability) at concentrations greater than 5 μM."}, "[3]": {"system": "Eimeria tenella parasites", "test": "Eimeria tenella invasion of MDBK cells after preincubation of parasites with compound", "format": "cell-based", "description": "as §1\nPreincubation of compound C with parasites caused a significant reduction in invasion of Madin-Darby Bovine Kidney (MDBK) cells at concentrations of 10 μM and above."}}}
{"compound": "C=C/C(C)=C/C1(C)SC(=O)C(C)=C1O", "note": "(racemic) [Racemic thiolactomycin, Thiolactomycin, reference compound]", "values": [{"measurement": "IC50", "setting": "[1]", "value": "~150", "unit": "µM"}, {"measurement": "IC50", "setting": "Plasmodium falciparum", "value": 40, "unit": "µM"}]}
{"compound": "CC(C)=CCC/C(C)=C/CC1(C)SC(=O)C(C)=C1O", "note": "(stereo not drawn) [Compound C]", "values": [{"measurement": "concentrations causing a significant decrease in the uptake of uracil by the parasites", "setting": "[2]", "value": "greater than 5 μM"}, {"measurement": "concentrations causing a significant reduction in invasion of Madin-Darby Bovine Kidney (MDBK) cells", "setting": "[3]", "value": "≥ 10", "unit": "µM"}, {"measurement": "IC50", "setting": "Plasmodium falciparum", "value": 0.5, "unit": "µM"}, {"measurement": "times more active than racemic thiolactomycin in inhibiting growth of Plasmodium falciparum", "setting": "Plasmodium falciparum; ratio of IC50 values at 48 hours", "value": "approximately 80 times"}]}
